In ChEMBL document CHEMBL3872220, “Amphiphilic xanthones as a potent chemical entity of anti-mycobacterial agents with membrane-targeting properties” (Eur J Med Chem, 2016):
Values after ≈ are worked out from the molar mass of the structure shown.

How the values were obtained:
[1] = system: Mycolicibacterium smegmatis; experiment: Antimycobacterial activity against Mycobacterium smegmatis MC2 155 assessed as ATP leakage by measuring intracellular ATP at 2 times MIC measured at 6 hrs post dose by luciferase reporter gene assay; assay type: functional, str. MC2 155
[2] = system: Mycolicibacterium smegmatis; experiment: Antimycobacterial activity against Mycobacterium smegmatis MC2 155 assessed as ATP leakage by measuring extracellular ATP at MIC measured at 1 hr of post dose by luciferase reporter gene assay; assay type: functional, str. MC2 155
CYP3A4 = CYP3A4 (Homo sapiens, UniProt P08684); experiment: Inhibition of CYP3A4 in human liver microsomes at 10 uM using midazolam as substrate preincubated for 5 min followed by NADPH addition measured after 10 mins by LC-MS/MS method relative to control; assay type: ADME; details: probe midazolam
CYP3A4, sequence (P08684 whole entry): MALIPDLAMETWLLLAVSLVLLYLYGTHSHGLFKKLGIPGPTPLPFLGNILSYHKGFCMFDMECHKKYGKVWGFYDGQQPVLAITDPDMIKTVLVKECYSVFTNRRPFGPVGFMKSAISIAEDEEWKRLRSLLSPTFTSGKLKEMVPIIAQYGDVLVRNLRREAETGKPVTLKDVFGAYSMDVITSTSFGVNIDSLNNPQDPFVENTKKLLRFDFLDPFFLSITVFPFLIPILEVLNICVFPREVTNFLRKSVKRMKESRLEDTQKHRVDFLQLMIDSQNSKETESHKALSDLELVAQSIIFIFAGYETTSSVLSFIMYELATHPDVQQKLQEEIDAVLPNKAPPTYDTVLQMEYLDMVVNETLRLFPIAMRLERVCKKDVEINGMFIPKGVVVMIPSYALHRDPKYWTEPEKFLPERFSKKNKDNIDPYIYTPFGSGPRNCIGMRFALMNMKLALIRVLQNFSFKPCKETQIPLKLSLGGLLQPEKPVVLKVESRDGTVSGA

[3] = system: Mycolicibacterium smegmatis; experiment: Antimycobacterial activity against Mycobacterium smegmatis MC2 155 assessed as ATP leakage by measuring intracellular ATP at 2 times MIC measured at 9 hrs post dose by luciferase reporter gene assay; assay type: functional, str. MC2 155
[4] = Selectivity index, ratio of CC50 for human corneal fibroblasts assessed as reduction in ATP level to MIC90 for Mycobacterium smegmatis MC2 155
[5] = system: Mycolicibacterium smegmatis; experiment: Antimycobacterial activity against Mycobacterium smegmatis MC2 155 assessed as ATP leakage by measuring extracellular ATP at 4 times MIC measured at 3 hrs post dose by luciferase reporter gene assay; assay type: functional, str. MC2 155
[6] = system: Mycolicibacterium smegmatis; experiment: Antimycobacterial activity against Mycobacterium smegmatis MC2 155 assessed as ATP leakage by measuring extracellular ATP at MIC measured at 6 hrs post dose by luciferase reporter gene assay; assay type: functional, str. MC2 155
[7] = Hemolytic activity against New Zealand white rabbit RBC assessed as hemoglobin release measured after 1 hr; assay type: ADME, cell-based, Oryctolagus cuniculus, Erythrocyte; details: red blood cells
[8] = Cytotoxicity against human corneal fibroblasts assessed as increase in LDH level measured after 4 hrs by Cytotox-one […] assay; assay type: toxicity, Corneal fibroblast
[9] = system: Mycolicibacterium smegmatis; experiment: Antimycobacterial activity against Mycobacterium smegmatis MC2 155 assessed as ATP leakage by measuring extracellular ATP at 2 times MIC measured at 24 hrs post dose by luciferase reporter gene assay; assay type: functional, str. MC2 155
[10] = system: Mycolicibacterium smegmatis; experiment: Antimycobacterial activity against Mycobacterium smegmatis MC2 155 assessed as ATP leakage by measuring intracellular ATP at 4 times MIC measured at 3 hrs post dose by luciferase reporter gene assay; assay type: functional, str. MC2 155
[11] = system: Mycolicibacterium smegmatis; experiment: Antimycobacterial activity against Mycobacterium smegmatis MC2 155 assessed as ATP leakage by measuring extracellular ATP at MIC measured at 3 hrs post dose by luciferase reporter gene assay; assay type: functional, str. MC2 155
[12] = system: Mycolicibacterium smegmatis; experiment: Antimycobacterial activity against Mycobacterium smegmatis MC2 155 assessed as ATP leakage by measuring intracellular ATP at MIC measured at 3 hrs post dose by luciferase reporter gene assay; assay type: functional, str. MC2 155
[13] = system: Mycobacterium tuberculosis; experiment: Antimycobacterial activity against Mycobacterium tuberculosis clinical isolate 01;064 assessed as reduction in 2 log10 bacterial colonies measured after 14 to 21 days by agar dilution method; assay type: functional
[14] = system: Mycolicibacterium smegmatis; experiment: Antimycobacterial activity against Mycobacterium smegmatis MC2 155 assessed as inhibition of respiratory ATP synthesis by measuring ATP level at 2 times MIC measured after 1 hr by luciferase reporter gene assay (reference value: 90.6%); assay type: functional, str. MC2 155; parameters: scale not given: the % may be the effect or the level left
[15] = system: Mycolicibacterium smegmatis; experiment: Antimycobacterial activity against Mycobacterium smegmatis MC2 155 assessed as ATP leakage by measuring intracellular ATP at 0.5 times MIC measured at 24 hrs post dose by luciferase reporter gene assay; assay type: functional, str. MC2 155
CYP2D6 = CYP2D6 (Homo sapiens, UniProt P10635); experiment: Inhibition of CYP2D6 in human liver microsomes at 10 uM using bufuralol as substrate preincubated for 5 min followed by NADPH addition measured after 10 mins by LC-MS/MS method relative to control; assay type: ADME; details: probe bufuralol
CYP2D6, sequence (P10635 whole entry): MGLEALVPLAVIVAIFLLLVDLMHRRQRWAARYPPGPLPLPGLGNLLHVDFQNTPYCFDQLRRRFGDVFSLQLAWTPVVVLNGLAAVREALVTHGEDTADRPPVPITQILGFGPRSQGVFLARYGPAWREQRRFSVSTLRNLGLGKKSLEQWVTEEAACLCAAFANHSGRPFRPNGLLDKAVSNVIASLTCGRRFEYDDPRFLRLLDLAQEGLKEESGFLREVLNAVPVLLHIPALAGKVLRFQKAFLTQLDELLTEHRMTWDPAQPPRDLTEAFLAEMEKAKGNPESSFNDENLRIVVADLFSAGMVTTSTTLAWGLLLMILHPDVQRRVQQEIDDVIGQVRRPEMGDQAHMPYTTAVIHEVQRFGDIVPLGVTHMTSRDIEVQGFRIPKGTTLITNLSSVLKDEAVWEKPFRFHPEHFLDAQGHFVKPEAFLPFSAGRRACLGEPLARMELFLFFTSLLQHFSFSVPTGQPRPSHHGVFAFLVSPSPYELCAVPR

[16] = system: Mycolicibacterium smegmatis; experiment: Antimycobacterial activity against Mycobacterium smegmatis MC2 155 assessed as ATP leakage by measuring intracellular ATP at MIC measured immediatey after addition of compounds by luciferase reporter gene assay; assay type: functional, str. MC2 155
[17] = system: Mycobacterium tuberculosis; experiment: Antimycobacterial activity against Mycobacterium tuberculosis clinical isolate 01;092 assessed as reduction in 2 log10 bacterial colonies measured after 14 to 21 days by agar dilution method; assay type: functional
[18] = system: Mycolicibacterium smegmatis; experiment: Antimycobacterial activity against Mycobacterium smegmatis MC2 155 assessed as ATP leakage by measuring intracellular ATP at 4 times MIC measured immediatey after addition of compounds by luciferase reporter gene assay; assay type: functional, str. MC2 155
[19] = system: Mycolicibacterium smegmatis; experiment: Antimycobacterial activity against Mycobacterium smegmatis MC2 155 assessed as ATP leakage by measuring intracellular ATP at MIC measured at 24 hrs post dose by luciferase reporter gene assay; assay type: functional, str. MC2 155
[20] = system: Mycobacterium tuberculosis; experiment: Antimycobacterial activity against Mycobacterium tuberculosis clinical isolate 01;095 assessed as reduction in 2 log10 bacterial colonies measured after 14 to 21 days by agar dilution method; assay type: functional
[21] = system: Mycolicibacterium smegmatis; experiment: Antimycobacterial activity against Mycobacterium smegmatis MC2 155 assessed as ATP leakage by measuring intracellular ATP at MIC measured at 6 hrs post dose by luciferase reporter gene assay; assay type: functional, str. MC2 155
[22] = system: Mycolicibacterium smegmatis; experiment: Antimycobacterial activity against Mycobacterium smegmatis MC2 155 assessed as ATP leakage by measuring extracellular ATP at 4 times MIC measured at 24 hrs post dose by luciferase reporter gene assay; assay type: functional, str. MC2 155
[23] = system: Mycobacterium tuberculosis; experiment: Antimycobacterial activity against Mycobacterium tuberculosis clinical isolate 01;057 assessed as reduction in 2 log10 bacterial colonies measured after 14 to 21 days by agar dilution method; assay type: functional
[24] = system: Mycolicibacterium smegmatis; experiment: Antimycobacterial activity against Mycobacterium smegmatis MC2 155 assessed as ATP leakage by measuring intracellular ATP at 4 times MIC measured at 1 hr of post dose by luciferase reporter gene assay; assay type: functional, str. MC2 155
[25] = system: Mycolicibacterium smegmatis; experiment: Antimycobacterial activity against Mycobacterium smegmatis MC2 155 assessed as ATP leakage by measuring extracellular ATP at MIC measured immediatey after addition of compounds by luciferase reporter gene assay; assay type: functional, str. MC2 155
[26] = system: Mycolicibacterium smegmatis; experiment: Antimycobacterial activity against Mycobacterium smegmatis MC2 155 assessed as ATP leakage by measuring intracellular ATP at 0.5 times MIC measured at 6 hrs post dose by luciferase reporter gene assay; assay type: functional, str. MC2 155
[27] = system: Mycolicibacterium smegmatis; experiment: Antimycobacterial activity against Mycobacterium smegmatis MC2 155 assessed as ATP leakage by measuring extracellular ATP at 0.5 times MIC measured immediatey after addition of compounds by luciferase reporter gene assay by luciferase reporter gene assay by luciferase reporter gene assay; assay type: functional, str. MC2 155
[28] = system: Mycolicibacterium smegmatis; experiment: Antimycobacterial activity against Mycobacterium smegmatis MC2 155 assessed as ATP leakage by measuring intracellular ATP at 2 times MIC measured immediatey after addition of compounds by luciferase reporter gene assay; assay type: functional, str. MC2 155
[29] = system: Mycolicibacterium smegmatis; experiment: Antimycobacterial activity against Mycobacterium smegmatis MC2 155 assessed as ATP leakage by measuring extracellular ATP at 2 times MIC measured at 3 hrs post dose by luciferase reporter gene assay; assay type: functional, str. MC2 155
[30] = Half life in rat liver microsomes at 1 uM preincubated for 5 mins followed by NADPH addition measured by LC-MS/MS method; assay type: ADME
[31] = system: Mycolicibacterium smegmatis; experiment: Induction of membrane integrity impairment in Mycobacterium smegmatis MC2 155 at 2 to 4 times MIC measured after 3 hrs by SYTO-9/propium iodide staining based Baclight assay relative to control; assay type: functional, str. MC2 155
[32] = system: Mycolicibacterium smegmatis; experiment: Induction of impaired membrane integrity in Mycobacterium smegmatis MC2 155 assessed as reduction in membrane integrity at 0.5 times MIC by SYTO-9/propium iodide stain based Baclight assay relative to control; assay type: functional, str. MC2 155; parameters: scale not given: the % may be the effect or the level left
[33] = system: Mycolicibacterium smegmatis; experiment: Induction of membrane integrity impairment in Mycobacterium smegmatis MC2 155 at 4 times MIC measured after 24 hrs by SYTO-9/propium iodide staining based Baclight assay relative to control; assay type: functional, str. MC2 155

Row | SMILES | Activity [1] | Activity [2] | inhibition at 10 min, 10 µM (CYP3A4) | Activity [3] | Activity [5] | Activity [6] | CC50 at 4 h [8] | Activity [9] | Activity [10] | Activity [11] | Activity [12] | Activity [14] | Activity [15] | inhibition at 10 min, 10 µM (CYP2D6) | Activity [16] | Activity [18] | Activity [19] | Activity [21] | Activity [22] | Activity [24] | other results
1 | COc1c(OCCCCN2CCOCC2)cc2oc3cc(OCCCCN4CCOCC4)c(CC=C(C)C)c(O)c3c(=O)c2c1CC=C(C)C | 23.3% | 6.5% | 32% | 15.6% | 55.3% | 36.3% | > 150 µM | 94.7% | 44.7% | 44.7% | 55.3% | 50.2% | 52.5% | 0% | 97.7% | 96.2% | 11.3% | 63.7% | 95.5% | 57.3% | Selectivity Index [4]: 15 - 40; HC50 at 1 h [7]: > 289 µM; MIC [13]: 4 µg/mL (≈ 5.77 µM); MIC [17]: 4 µg/mL (≈ 5.77 µM); MIC [20]: 4 µg/mL (≈ 5.77 µM); MIC [23]: 4 µg/mL (≈ 5.77 µM); Activity [25]: 2.3%; Activity [26]: 86.8%; Activity [27]: 0%; Activity [28]: 97%; Activity [29]: 63.4%; half-life at 1 µM [30]: > 30 min
2 | CCCN(CCC)CCCCOc1cc2oc3cc(OCCCCN(CCC)CCC)c(OC)c(CC=C(C)C)c3c(=O)c2c(O)c1CC=C(C)C | 3.9% | 88.5% | 0% | 3.9% | 91.1% | 88% | > 150 µM | 95.3% | 8.9% | 91.8% | 8.2% | 5.9% | 46.4% | 0% | 97.7% | 95.7% | 11.9% | 12% | 88% | 5.7% | Selectivity Index [4]: 15 - 40; HC50 at 1 h [7]: > 277 µM; Activity [31]: >80%; Activity [32]: <15%; Activity [25]: 2.3%; Activity [26]: 69.4%; Activity [27]: 0%; Activity [28]: 96%; Activity [29]: 97.4%; half-life at 1 µM [30]: > 30 min; Activity [33]: 76.9%
3 | CCN(CC)CCCCOc1cc2oc3cc(OCCCCN(CC)CC)c(OC)c(CC=C(C)C)c3c(=O)c2c(O)c1CC=C(C)C | 3.2% | 42.1% | 12% | 3.4% | 97.5% | 79.9% | > 150 µM | 86.7% | 2.5% | 88% | 12% | 5.8% | 33.3% | 6% | 99.2% | 98.7% | 55.6% | 20.1% | 97.3% | 2.6% | Activity [31]: >80%; MIC [13]: 8 µg/mL (≈ 12 µM); MIC [17]: 2 µg/mL (≈ 3.01 µM); MIC [20]: 4 µg/mL (≈ 6.02 µM); Activity [32]: <15%; MIC [23]: 4 µg/mL (≈ 6.02 µM); Activity [25]: 0.8%; Activity [26]: 87.8%; Activity [27]: 0%; Activity [28]: 98.7%; Activity [29]: 97.3%; half-life at 1 µM [30]: > 30 min; Activity [33]: 62.5%
